Data taken from patent US20220054438A1, “KCHIP2 MODULATOR COMPOUNDS AND THEIR USE FOR THE TREATMENT OF CARDIOVASCULAR DISEASES” (CONSEJO SUPERIOR DE INVESTIGACIONES CIENTÍFICAS (CSIC), priority 2018, published 2022).
“Also recorded” adds a separate entry of the source.

Legend:
KV4.3+KChIP2 channels = target: T1, KV4.3+KChIP2 channels (Homo sapiens, UniProt Q9NS61); experiment: Whole-cell patch-clamp of KV4.3+KChIP2 currents in transiently transfected CHO cells; type: cell-based
T1 construct: expressed in transfected cells; host or cells: CHO cells (transient transfection)
T1 sequence (Q9NS61 1-270): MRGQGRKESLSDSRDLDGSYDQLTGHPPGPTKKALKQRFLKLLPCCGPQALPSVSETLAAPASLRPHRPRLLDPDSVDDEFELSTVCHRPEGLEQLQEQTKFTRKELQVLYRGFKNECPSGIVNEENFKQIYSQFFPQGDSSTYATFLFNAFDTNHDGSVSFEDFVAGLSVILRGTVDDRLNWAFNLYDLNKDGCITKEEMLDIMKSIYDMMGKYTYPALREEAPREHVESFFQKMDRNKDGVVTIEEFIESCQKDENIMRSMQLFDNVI
T1 sequence (Q9UK17 1-655 partner): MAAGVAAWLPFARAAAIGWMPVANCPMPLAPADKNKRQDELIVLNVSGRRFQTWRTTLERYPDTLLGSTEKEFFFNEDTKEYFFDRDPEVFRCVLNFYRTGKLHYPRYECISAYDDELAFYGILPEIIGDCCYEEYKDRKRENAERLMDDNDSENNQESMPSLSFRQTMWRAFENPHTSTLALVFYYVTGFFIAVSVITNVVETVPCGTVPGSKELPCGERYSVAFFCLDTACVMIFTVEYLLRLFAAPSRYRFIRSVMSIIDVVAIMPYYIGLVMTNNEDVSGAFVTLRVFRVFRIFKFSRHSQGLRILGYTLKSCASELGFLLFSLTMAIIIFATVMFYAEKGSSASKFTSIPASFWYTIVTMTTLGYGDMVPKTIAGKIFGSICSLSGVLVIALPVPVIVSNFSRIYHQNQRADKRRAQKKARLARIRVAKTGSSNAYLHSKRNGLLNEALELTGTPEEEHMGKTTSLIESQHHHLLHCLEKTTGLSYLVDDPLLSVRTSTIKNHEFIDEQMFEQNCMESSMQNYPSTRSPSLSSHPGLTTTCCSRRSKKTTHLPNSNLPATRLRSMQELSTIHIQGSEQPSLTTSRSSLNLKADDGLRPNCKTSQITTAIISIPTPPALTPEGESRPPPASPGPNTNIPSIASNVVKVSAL
Source text: (§1) Example 2. Tests of the effects of the compounds on the KV4.3/KChIP2 and KV4.3/KChIP2/DPP6 currents generated after the activation of KV4.3/KChIP2 and KV4.3/KChIP2/DPP6 channels expressed in CHO cells.
(§2) The compounds synthesized according to this invention have been evaluated in vitro in voltage clamp tests in CHO cells transiently transfected with cDNA encoding KV4.3 alone or KV4.3 in the presence of KChIP2 (KV4.3+KChIP2) and DPP6 (KV4.3+KChIP2+DPP6) using the whole-cell configuration of the patch-clamp technique. Some of the compounds activate the current generated by the activation of KV4.3+KChIP2 channels.

[1] = target: T2, KV4.3+KChIP2+DPP6 channels (Homo sapiens, UniProt Q9NS61); experiment: Whole-cell patch-clamp of KV4.3+KChIP2+DPP6 currents in transiently transfected CHO cells; type: cell-based
T2 construct: expressed in transfected cells; host or cells: CHO cells (transient transfection)
T2 sequence (P42658 whole entry partner, one chain of several): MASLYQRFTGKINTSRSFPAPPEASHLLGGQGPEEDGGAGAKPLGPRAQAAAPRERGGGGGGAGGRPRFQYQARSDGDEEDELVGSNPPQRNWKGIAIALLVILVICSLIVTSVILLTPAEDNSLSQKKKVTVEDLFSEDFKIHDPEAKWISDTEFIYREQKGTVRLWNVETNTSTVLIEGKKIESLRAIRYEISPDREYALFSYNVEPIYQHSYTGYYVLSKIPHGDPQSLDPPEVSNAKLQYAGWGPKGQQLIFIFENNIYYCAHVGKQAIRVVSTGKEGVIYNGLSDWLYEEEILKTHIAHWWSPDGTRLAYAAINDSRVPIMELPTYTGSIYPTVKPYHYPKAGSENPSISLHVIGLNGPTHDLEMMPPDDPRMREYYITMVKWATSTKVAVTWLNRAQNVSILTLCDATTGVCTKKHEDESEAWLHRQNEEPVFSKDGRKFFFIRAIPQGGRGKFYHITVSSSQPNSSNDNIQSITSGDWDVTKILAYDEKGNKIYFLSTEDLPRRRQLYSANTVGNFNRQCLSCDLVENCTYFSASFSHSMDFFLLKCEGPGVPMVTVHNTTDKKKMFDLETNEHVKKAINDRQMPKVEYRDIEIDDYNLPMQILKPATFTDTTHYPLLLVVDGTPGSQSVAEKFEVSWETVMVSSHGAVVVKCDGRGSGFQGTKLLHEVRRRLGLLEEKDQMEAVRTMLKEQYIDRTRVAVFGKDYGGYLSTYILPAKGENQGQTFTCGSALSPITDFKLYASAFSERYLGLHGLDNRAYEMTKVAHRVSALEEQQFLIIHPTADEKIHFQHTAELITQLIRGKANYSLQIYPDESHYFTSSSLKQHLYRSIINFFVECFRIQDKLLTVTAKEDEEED
Source text: as §1, §2

[2] = tested on: K+ current in ventricular cardiomyocytes; experiment: Perforated patch-clamp of K+ current in mouse ventricular cardiomyocytes; type: cell-based, C57BL/6J mice; conditions: 3 μM perfused for 3-4 minutes, +60 mV
Source text: Example 3. Effects of the Compounds on the K^+ Current Recorded in Mouse Ventricular Cardiomyocytes
The cardiomyocytes were obtained after enzyme dissociation with collagenase.

O=C(Cc1cccc(Oc2ccccc2)c1)Nc1cc2ccccc2cc1C(=O)O [Compound 22bis, 3-[2-(3-phenoxyphenyl)acetylamino]-2-naphthoic acid]
charge measured as the area under the current record (KV4.3+KChIP2 channels; 3 μM, CHO cells, depolarizing pulses at +60 mV): increases the charge; also recorded: produced an increase in the charge
maximum peak of the current (KV4.3+KChIP2 channels; 3 μM, FIG. 1A, CHO cells): lowers the maximum peak
charge-voltage relationship (Q-V) (KV4.3+KChIP2 channels; 3 μM, FIG. 3): increase in the charge of the KV4.3/KChIP2 and KV4.3/KChIP2/DPP6 current which turned out to be significant at potentials positive than 0 mV
decrease in the peak versus decrease in the charge, concentration dependence (KV4.3+KChIP2 channels; all concentrations tested except 0.01 μM, FIG. 2, +60 mV): decrease in the peak that was significantly greater than that of the charge
current activating effect ([1]; 3 μM, FIG. 1B, compared with KV4.3+KChIP2): more pronounced in the presence of the DPP6 subunit
charge-voltage relationship (Q-V) ([1]; 3 μM, FIG. 3): increase in the charge of the KV4.3/KChIP2 and KV4.3/KChIP2/DPP6 current which turned out to be significant at potentials positive than 0 mV; also recorded: greater than in KV4.3/KChIP2 channels
charge, concentration dependence ([1]; FIG. 2B, +60 mV, compared with KV4.3/KChIP2): increase in the charge more pronounced
decay (inactivation) time constant of the K+ current [2]: without modifying the decay time constant
maximum peak K+ current [2]: significant increase in the maximum peak current
